In BindingDB's records for patent US20240166639 (Leukos Biotech, 2024):

Tests used:
[1] = target: 5-hydroxytryptamine receptor 2A (Homo sapiens, UniProt P28223); experiment: Competition Binding in Human 5-HT2A Receptor
Protocol: Serotonin 5-HT2A receptor competition binding experiments were carried out in a polypropilene 96-well plate. In each well was incubated 80 μg of membranes from CHO-5-HT2A cell line prepared in the laboratory (protein concentration=4337 μg/ml), 1 nM [3H]-Ketanserin (47.3 Ci/mmol, 1 mCi/ml, Perkin Elmer NET791250UC) and compounds studied and standard. Non-specific binding was determined in the presence of Methysergide 1 μM (Sigma M137). The reaction mixture (Vt: 250 μl/well) was incubated at 37° C. for 30 min, 200 μL was transfered to GF/B 96-well plate (Millipore, Madrid, Spain) pretreated with 0.5% of PEI and treated with binding buffer (Tris-HCl 50 mM, pH=7.4), after was filtered and washed six times with 250 μl wash buffer (Tris-HCl 50 mM, pH=6.6), before measuring in a microplate beta scintillation counter (Microbeta Trilux, PerkinElmer, Madrid, Spain).

[2] = target: 5-hydroxytryptamine receptor 1B (Homo sapiens, UniProt P28222); experiment: Binding at Human Serotonin Receptors Competition Binding in Human 5-HT1B Receptor Assay
Protocol: Serotonin 5-HT1B receptor competition binding experiments were carried out in a polypropylene 96-well plate. […] The reaction mixture (Vt: 250 μl/well) was incubated at 25° C. for 90 min, 200 μL was transfered to GF/C 96-well plate (Millipore, Madrid, Spain) pretreated with 0.5% of PEI and treated with binding buffer (Tris-HCl 50 mM, EDTA 1 mM, MgCl2 10 mM, pH=7.4), after was filtered and washed four times with 250 μl wash buffer (Tris-HCl 50 mM, pH=7.4), before measuring in a microplate beta scintillation counter (Microbeta Trilux, PerkinElmer, Madrid, Spain).

Sequence of 5-hydroxytryptamine receptor 2A (P28223 whole entry): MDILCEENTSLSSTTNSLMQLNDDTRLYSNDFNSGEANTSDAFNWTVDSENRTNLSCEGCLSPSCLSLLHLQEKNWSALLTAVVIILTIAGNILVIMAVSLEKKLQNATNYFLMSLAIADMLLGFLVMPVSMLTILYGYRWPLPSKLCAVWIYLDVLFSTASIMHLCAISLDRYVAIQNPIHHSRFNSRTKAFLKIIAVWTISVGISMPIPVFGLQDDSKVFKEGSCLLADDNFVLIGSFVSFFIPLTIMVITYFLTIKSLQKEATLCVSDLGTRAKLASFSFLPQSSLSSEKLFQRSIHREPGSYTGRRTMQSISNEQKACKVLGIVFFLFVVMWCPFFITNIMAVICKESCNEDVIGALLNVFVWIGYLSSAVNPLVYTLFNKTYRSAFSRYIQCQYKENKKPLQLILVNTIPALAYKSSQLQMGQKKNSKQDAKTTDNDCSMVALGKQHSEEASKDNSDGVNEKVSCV
Sequence of 5-hydroxytryptamine receptor 1B (P28222 whole entry): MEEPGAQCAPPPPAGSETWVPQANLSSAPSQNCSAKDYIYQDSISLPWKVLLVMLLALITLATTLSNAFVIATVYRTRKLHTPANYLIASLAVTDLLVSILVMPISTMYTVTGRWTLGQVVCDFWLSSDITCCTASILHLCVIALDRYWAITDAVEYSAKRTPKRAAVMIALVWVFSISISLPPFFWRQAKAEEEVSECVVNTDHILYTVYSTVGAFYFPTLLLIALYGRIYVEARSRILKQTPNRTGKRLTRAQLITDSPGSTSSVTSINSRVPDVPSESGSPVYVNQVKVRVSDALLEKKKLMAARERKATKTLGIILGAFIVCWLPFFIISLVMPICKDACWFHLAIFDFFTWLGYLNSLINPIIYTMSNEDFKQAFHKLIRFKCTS

Ki [1]: 2.5 µM | Ki [2]: 0.0004 µM
SMILES: Cc1nc(-c2ccc(-c3ccc(C(=O)Nc4cc(OCCN(C)C)c(Br)cn4)cn3)c(C3CC3)c2)no1 [US20240166639, Example 39]
